From ChEMBL document CHEMBL5260795, “Antifungal potential of marine natural products” (Eur J Med Chem, 2017) come the findings set out here.

The test system of test [1] is Saccharomyces cerevisiae. The experiment in a line: Antifungal activity against Saccharomyces cerevisiae. The format is functional.
The test system of test [2] is Aspergillus niger. The experiment in a line: Antimicrobial activity against Aspergillus niger incubated for 72 hrs by standard broth dilution method. Format: functional. For orientation: In broth dilution the organism is exposed to a series of concentrations in liquid medium.
Test [3] deals with Botrytis cinerea. The experiment in a line: Antimicrobial activity against Botrytis cinerea incubated for 72 hrs by standard broth dilution method. The format is functional.
The test system of test [4] is Colletotrichum acutatum. The experiment in a line: Antimicrobial activity against Colletotrichum acutatum incubated for 72 hrs by standard broth dilution method. The format is functional.
The subject of test [5] is Rhizoctonia solani. The experiment in a line: Antimicrobial activity against Rhizoctonia solani incubated for 72 hrs by standard broth dilution method. Format: functional.
In test [6] the test system is Candida albicans. The experiment in a line: Antimicrobial activity against Candida albicans incubated for 72 hrs by standard broth dilution method. Format: functional.
In test [7] the test system is Saccharomyces cerevisiae. The experiment in a line: Antimicrobial activity against Saccharomyces cerevisiae incubated for 72 hrs by standard broth dilution method. The format is functional.
For test [8], the system named is Candida albicans. The experiment in a line: Antifungal activity against Candida albicans assessed as fungal growth inhibition. Format: functional.
In test [9] the test system is Candida albicans. The experiment in a line: Antifungal activity against Candida albicans. Format: functional, organism-based.
The subject of test [10] is Aspergillus niger. The experiment in a line: Antifungal activity against Aspergillus niger. Format: functional.
The test system of test [11] is Rhizoctonia solani. The experiment in a line: Antifungal activity against Rhizoctonia solani. The format is functional.
In test [12] the test system is Botrytis cinerea. The experiment in a line: Antifungal activity against Botrytis cinerea. Format: functional.
Test [13] has as its system Colletotrichum acutatum. The experiment in a line: Antifungal activity against Colletotrichum acutatum. Format: functional.
In test [14] the test system is Candida albicans. The experiment in a line: Antifungal activity against wild type Candida albicans. Format: functional, organism-based.

≈ marks a conversion by molar mass, not a printed value. Where a SMILES comes first, the peptide text is derived from it. [ ]: non-standard residue; d: D form. The star is where a group is joined. Tridecanoyl(3R-OH,11-Me) = CCC(C)CCCCCCC[C@@H](O)CC(=O)*

By MIC is commonly meant the smallest concentration in the dilution series that meets the test's criterion for growth inhibition. Regarding `CC1CCC/C=C/[C@@H]2O[C@@H](C/C=C\C=C\[C@H](O[C@@H]3O[C@H](CO)[C@@H](O)[C@H](O)[C@H]3O)C/C=C/C=C\C(=O)O1)C[C@@H](O)[C@H]2O` (stereo not given in full), the MIC with Saccharomyces cerevisiae [1] is 0.22 µg/mL (≈ 0.379 µM).

Take `C[C@@H]1CCC/C=C/C=C/[C@H](O)C[C@@H](O)C/C=C\C=C\[C@@H](O[C@@H]2O[C@@H](CO)[C@H](O)[C@@H](O)[C@@H]2O)C/C=C/C=C\C(=O)O1`: the minimal inhibitory concentration (MIC) in the test on Aspergillus niger [2], in the test on Botrytis cinerea [3], against Colletotrichum acutatum [4], against Rhizoctonia solani [5], with Candida albicans [6] and with Saccharomyces cerevisiae [7] was 0.02 µg/mL (≈ 0.0354 µM) each time.

Take `C[C@@H]1CCCCC/C=C/[C@H](O)C[C@@H](O)C/C=C\C=C\[C@@H](O[C@@H]2O[C@@H](CO)[C@H](O)[C@@H](O)[C@@H]2O)C/C=C/C=C\C(=O)O1`: the minimal inhibitory concentration (MIC) against Aspergillus niger [2], in the test on Botrytis cinerea [3], against Colletotrichum acutatum [4], with Rhizoctonia solani [5], with Candida albicans [6] and against Saccharomyces cerevisiae [7] was 0.02 µg/mL (≈ 0.0353 µM) each time.

`CCCC[C@H](CC)C1NC(=O)c2ccccc2N1` (stereo not given in full): in the test with Candida albicans [8], the minimum inhibitory concentration (MIC) was 0.62 µg/mL (≈ 2.52 µM).

On to `CC(C)C[C@@H](C)[C@@H](O)[C@@H](C)C(=O)N[C@H](C)C(=O)N[C@@H](CCCNC(=N)N)[C@@H](O)[C@@H](O)C(=O)N[C@H](C(=O)N[C@@H](C(=O)N[C@@H](C(=O)N[C@H](CCCNC(=N)N)C(=O)O)[C@@H](C)O)[C@@H](C)O)[C@@H](C)[C@@H](C)C(N)=O`, for which, in the test with Candida albicans [9], the MIC was determined as 0.1 µg/mL (≈ 0.101 µM).

As for `C[C@@H]1CCC/C=C/C=C/[C@H](O)C[C@@H](O)C/C=C\C=C\[C@@H](OC(=O)CCC(=O)O[C@H]2O[C@@H](CO)[C@H](O)[C@@H](O)[C@@H]2O)C/C=C/C=C\C(=O)O1`, the MIC in the test on Aspergillus niger [2], against Botrytis cinerea [3], with Colletotrichum acutatum [4], against Rhizoctonia solani [5], with Candida albicans [6] and in the test on Saccharomyces cerevisiae [7] was 0.02 µg/mL (≈ 0.0301 µM) throughout.

Turning to `C[C@@H]1CCCCC/C=C/[C@H](O)C[C@@H](O)C/C=C\C=C\[C@@H](O)C/C=C/C=C\C(=O)O1`, the minimum inhibitory concentration (MIC) with Aspergillus niger [2], in the test on Botrytis cinerea [3], against Colletotrichum acutatum [4], in the test with Rhizoctonia solani [5], in the test with Candida albicans [6] and against Saccharomyces cerevisiae [7] was 0.02 µg/mL (≈ 0.0494 µM) each time.

`CCCC[C@H](CC)c1nc2ccccc2c(=O)[nH]1`: in the test on Candida albicans [8], the minimum inhibitory concentration (MIC) is 0.62 µg/mL (≈ 2.54 µM).

In the case of `Cc1ccc(CC2CCC(=O)N2)c(C)c1` (stereo not given), the minimal inhibitory concentration (MIC) in the test with Aspergillus niger [10] was determined as 1 µg/mL (≈ 4.92 µM).

For the compound `CCC(C)CCCCCCC[C@@H](O)CC(=O)N[C@@H](CCC(=O)O)C(=O)N[C@@H](CC(C)C)C(=O)N[C@@H](CC(C)C)C(=O)N[C@@H](C(=O)N[C@@H](CC(=O)O)C(=O)N[C@@H](CC(C)C)C(=O)N[C@@H](CC(C)C)C(=O)O)C(C)C` (stereo partly drawn) ({Tridecanoyl(3R-OH,11-Me)}-ELL[dV]DLL-OH), the MIC with Rhizoctonia solani [11] and against Botrytis cinerea [12] was 4 µg/mL (≈ 3.84 µM) in each case.

As for `C=C(CC[C@@H](C)[C@H]1CC[C@H]2C3=C(CC[C@]12C)[C@@]1(C)CC[C@H](O)C[C@@H]1C(=O)O3)C(C)C`, the minimal inhibitory concentration (MIC) with Candida albicans [9] was found to be 0.79 µg/mL (≈ 1.91 µM).

As to `CC[C@H](CCCCCCCCCCCCC(=O)N[C@@H](C)C(=O)O)O[C@@H]1O[C@H](COC(=O)CCC(=O)O)[C@@H](O)[C@H](O)[C@H]1O`, the MIC in the test with Aspergillus niger [10], in the test on Rhizoctonia solani [11], in the test with Botrytis cinerea [12], with Colletotrichum acutatum [13] and in the test on Candida albicans [9] was 0.02 µg/mL (≈ 0.033 µM) each time.

As to `C/C(Cl)=C/C=C/C=C/C=C/C=C/C(O)=C1\C(=O)C(CC(N)=O)N([C@@H]2OC[C@@H](O)[C@H](O)[C@H]2O[C@H]2OC[C@H](O[C@H]3O[C@@H](C)[C@H](O)[C@@H]3O)[C@H](O)[C@H]2O)C1=O` (stereo not given in full), in the test with Candida albicans [14], the MIC worked out at 1.95 µg/mL (≈ 2.62 µM).

With `CCCCCCCCCCCCCCC(=O)OCC(O)CO[C@@H]1O[C@H](CO[C@@H]2C[C@H](CO)[C@@H](O)[C@H](O)[C@H]2O)[C@@H](O)[C@H](O)[C@H]1O` (stereo not given in full), the MIC against Aspergillus niger [10], in the test on Rhizoctonia solani [11], against Botrytis cinerea [12], in the test on Colletotrichum acutatum [13] and with Candida albicans [9] was 0.02 µg/mL (≈ 0.0313 µM) each time.

`CCCCCCCCCCCC(=O)N(CCO)CCO`: 0.22 µg/mL (≈ 0.765 µM) was the least that counted as inhibitory against Saccharomyces cerevisiae [1] (MIC).

What is called IC50 is the point on the concentration scale where inhibition reaches its midpoint. Read a high IC50 as weaker potency. `CCC/C=C\c1ccccc1/C=C/C(=O)N[C@H]1C(=O)N(C)/C(=C/c2ccc(O)cc2)C(=O)N[C@@H](CC(C)C)C(=O)N[C@H](Cc2ccccc2)C(=O)N[C@@H]([C@H](C)O)C(=O)N[C@@H](CC(N)=O)C(=O)N[C@@H](CO)C(=O)O[C@H](C)[C@@H](NC(=O)C/C=C2/C=CNC[C@H]2/C=C\CCC)C(=O)N(C)/C(=C/c2ccc(O)cc2)C(=O)N[C@@H](CC(C)C)C(=O)N[C@H](Cc2ccccc2)C(=O)N[C@@H]([C@H](C)O)C(=O)N[C@@H](CC(N)=O)C(=O)N[C@@H](CO)C(=O)O[C@@H]1C`: in the test with Candida albicans [9], half-maximal inhibition (IC50) was put at 4.14 µg/mL (≈ 1.99 µM).
